Test results reported in patent US9624214B2, “Amino-substituted imidazo[1,2-a]pyridinecarboxamides and their use” (BAYER PHARMA AKTIENGESELLSCHAFT, priority 2012, dated 2017).
Where a name gives a salt, the structure may show the parent alone.

Target: T1, recombinant guanylate cyclase reporter cell line (Rattus norvegicus, UniProt P19686+P20595)
T1 construct: expressed in transfected cells
T1 sequence (P20595 1-619): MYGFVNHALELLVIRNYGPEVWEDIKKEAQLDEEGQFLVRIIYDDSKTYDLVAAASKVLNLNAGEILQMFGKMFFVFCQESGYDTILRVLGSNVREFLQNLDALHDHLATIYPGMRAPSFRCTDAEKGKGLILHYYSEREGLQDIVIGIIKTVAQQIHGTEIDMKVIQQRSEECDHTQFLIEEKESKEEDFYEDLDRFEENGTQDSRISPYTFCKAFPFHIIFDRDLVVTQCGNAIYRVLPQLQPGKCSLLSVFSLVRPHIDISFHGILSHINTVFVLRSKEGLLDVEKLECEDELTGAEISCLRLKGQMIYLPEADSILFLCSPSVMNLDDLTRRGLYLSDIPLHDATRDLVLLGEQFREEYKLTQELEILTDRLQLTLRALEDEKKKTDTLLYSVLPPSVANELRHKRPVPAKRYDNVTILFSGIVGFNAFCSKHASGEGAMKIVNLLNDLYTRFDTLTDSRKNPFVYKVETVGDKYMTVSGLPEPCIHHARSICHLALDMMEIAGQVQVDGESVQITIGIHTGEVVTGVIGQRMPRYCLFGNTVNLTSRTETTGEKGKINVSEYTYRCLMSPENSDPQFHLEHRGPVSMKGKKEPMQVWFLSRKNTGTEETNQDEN
T1 sequence (P19686 1-690): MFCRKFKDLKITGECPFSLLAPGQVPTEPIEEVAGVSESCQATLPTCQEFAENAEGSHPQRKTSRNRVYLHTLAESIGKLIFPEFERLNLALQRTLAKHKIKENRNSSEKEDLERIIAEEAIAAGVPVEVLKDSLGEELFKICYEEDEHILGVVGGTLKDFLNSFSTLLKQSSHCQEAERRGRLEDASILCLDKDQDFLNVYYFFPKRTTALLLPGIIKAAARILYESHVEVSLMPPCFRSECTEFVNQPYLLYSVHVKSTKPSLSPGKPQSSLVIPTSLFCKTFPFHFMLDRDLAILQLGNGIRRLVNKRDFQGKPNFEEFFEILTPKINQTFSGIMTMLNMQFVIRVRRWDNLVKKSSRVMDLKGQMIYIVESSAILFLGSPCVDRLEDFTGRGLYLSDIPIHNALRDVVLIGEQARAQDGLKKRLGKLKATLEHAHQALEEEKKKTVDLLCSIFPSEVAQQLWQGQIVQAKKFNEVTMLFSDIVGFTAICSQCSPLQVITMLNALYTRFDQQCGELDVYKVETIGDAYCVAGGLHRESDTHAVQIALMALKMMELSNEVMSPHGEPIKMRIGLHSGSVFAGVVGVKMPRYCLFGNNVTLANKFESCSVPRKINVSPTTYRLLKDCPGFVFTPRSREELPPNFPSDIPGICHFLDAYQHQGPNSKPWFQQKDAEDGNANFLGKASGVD
Assay: B-2. Action on recombinant guanylate cyclase reporter cell line
Type: cell-based
Details: MEC = minimal effective concentration; in some cases mean values from individual determinations
Summary of the method: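 Compounds are tested on whole cells carrying a guanylate cyclase reporter construct. The lowest concentration giving an effect is recorded as the MEC.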

MEC [µM]	SMILES
1.00	CCCc1nc2c(OCc3c(F)cccc3F)cc(C)cn2c1C(=O)NCC(C)(N)CC (stereo not drawn) [Example 327, ent-N-(2-amino-2-methylbutyl)-8-[(2,6-difluorobenzyl)oxy]-6-methyl-2-propylimidazo[1,2-a]pyridine-3-carboxamide]
0.10	CCCC(C)(N)CNC(=O)c1c(CC)nc2c(OCc3c(F)cccc3F)cc(C)cn12 (stereo not drawn) [Example 338, ent-N-(2-amino-2-methylpentyl)-8-[(2,6-difluorobenzyl)oxy]-2-ethyl-6-methylimidazo[1,2-a]pyridine-3-carboxamide]
1.00	Cc1cc(OCc2c(F)cccc2F)c2nc(C)c(C(=O)NCC(C)(C)NCCO)n2c1 [Example 349, 8-[(2,6-Difluorobenzyl)oxy]-N-{2-[(2-hydroxyethyl)amino]-2-methylpropyl}-2,6-dimethylimidazo[1,2-a]pyridine-3-carboxamide]
3.00	COc1cccc(F)c1COc1cc(C)cn2c(C(=O)NCC(C)(C)N)c(C)nc12 [Example 352, N-(2-amino-2-methylpropyl)-8-[(2-fluoro-6-methoxybenzyl)oxy]-2,6-dimethylimidazo[1,2-a]pyridine-3-carboxamide]
3.00	CCCC(C)(N)CNC(=O)c1c(C)nc2c(OCc3ccccc3Br)cc(C)cn12 (stereo not drawn) [Example 353, N-(2-amino-2-methylpentyl)-8-[(2-bromobenzyl)oxy]-2,6-dimethylimidazo[1,2-a]pyridine-3-carboxamide]
3.00	CCCC(C)(N)CNC(=O)c1cnc2c(OCc3c(F)cccc3F)cccn12 (stereo not drawn) [Example 354, ent-N-(2-amino-2-methylpentyl)-8-[(2,6-difluorobenzyl)oxy]imidazo[1,2-a]pyridine-3-carboxamide]
0.30	C#Cc1cc(OCc2c(F)cccc2F)c2nc(C)c(C(=O)NCC(C)(N)CCC)n2c1 (stereo not drawn) [Example 355, ent-N-(2-amino-2-methylpentyl)-8-[(2,6-difluorobenzyl)oxy]-6-ethynyl-2-methylimidazo[1,2-a]pyridine-3-carboxamide Formate]
0.10	C#Cc1cc(OCc2c(F)cccc2F)c2nc(C)c(C(=O)NCC(C)(N)CCC)n2c1 (stereo not drawn) [Example 356, ent-N-(2-amino-2-methylpentyl)-8-[(2,6-difluorobenzyl)oxy]-6-ethynyl-2-methylimidazo[1,2-a]pyridine-3-carboxamide]
3.00	CCCC(C)(N)CNC(=O)c1c(C)nc2c(OCc3c(F)ccc(C4CC4)c3F)cc(C)cn12 (stereo not drawn) [Example 359, ent-N-(2-amino-2-methylpentyl)-8-[(3-cyclopropyl-2,6-difluorobenzyl)oxy]-2,6-dimethylimidazo[1,2-a]pyridine-3-carboxamide]
1.00	CCC(C)(N)CNC(=O)c1c(C)nc2c(OCc3c(F)ccc(OC)c3F)cc(C)cn12 (stereo not drawn) [Example 360, ent-N-(2-amino-2-methylbutyl)-8-[(2,6-difluoro-3-methoxybenzyl)oxy]-2,6-dimethylimidazo[1,2-a]pyridine-3-carboxamide]
1.00	COc1ccc(F)c(COc2cc(C)cn3c(C(=O)NCC(C)(N)CF)c(C)nc23)c1F (stereo not drawn) [Example 361, ent-N-(2-amino-3-fluoro-2-methylpropyl)-8-[(2,6-difluoro-3-methoxybenzyl)oxy]-2,6-dimethylimidazo[1,2-a]pyridine-3-carboxamide]
1.00	Cc1cc(OCc2c(F)ccc(C3CC3)c2F)c2nc(C)c(C(=O)NCC(C)(N)CF)n2c1 (stereo not drawn) [Example 362, N-(2-amino-3-fluoro-2-methylpropyl)-8-[(3-cyclopropyl-2,6-difluorobenzyl)oxy]-2,6-dimethylimidazo[1,2-a]pyridine-3-carboxamide]
3.00	CCC(C)(N)CNC(=O)c1c(C)nc2c(OCc3c(F)ccc(C4CC4)c3F)cc(C)cn12 (stereo not drawn) [Example 363, ent-N-(2-amino-2-methylbutyl)-8-[(3-cyclopropyl-2,6-difluorobenzyl)oxy]-2,6 dimethylimidazo[1,2-a]pyridine-3-carboxamide]
0.30	CCCC(C)(N)CNC(=O)c1c(C)nc2c(OCc3c(F)ccc(OC)c3F)cc(C)cn12 (stereo not drawn) [Example 364, ent-N-(2-amino-2-methylpentyl)-8-[(2,6-difluoro-3-methoxybenzyl)oxy]-2,6-dimethylimidao[1,2-a]pyridine-3-carboxamide]
1.00	Cc1cc(OCc2c(F)cccc2F)c2nc(C)c(C(=O)NC34CC5CC(CC(N)(C5)C3)C4)n2c1 [Example 365, N-(3-aminoadamantan-1-yl)-8-[(2,6-difluorobenzyl)oxy]-2,6-dimethylimidazo[1,2-a]pyridine-3-carboxamide Formate]
0.10	CCCC(C)(N)CNC(=O)c1c(C)nc2c(OCc3c(F)cccc3F)cc(CF)cn12 (stereo not drawn) [Example 403, ent-N-(2-amino-2-methylpentyl)-8-[(2,6-difluorobenzyl)oxy]-6-(fluoromethyl)-2-methylimidazo[1,2-a]pyridine-3-carboxamide]
0.30	CCC(C)(N)CNC(=O)c1c(C)nc2c(OCc3c(F)cccc3F)cc(CF)cn12 (stereo not drawn) [Example 404, ent-N-(2-amino-2-methylbutyl)-8-[(2,6-difluorobenzyl)oxy]-6-(fluoromethyl)-2-methylimidazo[1,2-a]pyridine-3-carboxamide]
0.30	Cc1nc2c(OCc3c(F)cccc3F)cc(CF)cn2c1C(=O)NCC(C)(N)CF (stereo not drawn) [Example 405, ent-N-(2-amino-3-fluoro-2-methylpropyl)-8-[(2,6-difluorobenzyl)oxy]-6-(fluoromethyl)-2-methylimidazo[1,2-a]pyridine-3-carboxamide]
